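Values below derive from 48-hour exposures of cells grown in 96-well plates, with endpoints linearly interpolated between the two concentrations bracketing the appropriate inhibition level. Here, GI50 denotes the concentration required for 50% inhibition of growth.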 The source made the active and inactive calls. No stated cut-off is given here; in the data, active = GI50 up to about 1.1 µM and inactive = higher.
Tests used:
Test in all cases: DTP human tumour cell line panel, 48 h
786-0 = test system: 786-0
A498 = test system: A498
A549 = test system: A549
ACHN = test system: ACHN
CAKI-1 = test system: CAKI-1
CCRF-CEM = test system: CCRF-CEM
COLO 205 = test system: COLO 205
DLD-1 = test system: DLD-1
DMS-273 = test system: DMS-273
EKVX = test system: EKVX
HCC 2998 = test system: HCC 2998
HCT-15 = test system: HCT-15
HL-60 = test system: HL-60
HOP-18 = test system: HOP-18
HOP-92 = test system: HOP-92
HT-29 = test system: HT-29
IGROV-1 = test system: IGROV-1
K562 = test system: K562
KM-20L2 = test system: KM-20L2
KM12 = test system: KM12
LOX IMVI = test system: LOX IMVI
LXFL 529 = test system: LXFL 529
M14 = test system: M14
M19-MEL = test system: M19-MEL
MOLT-4 = test system: MOLT-4
Malme-3M = test system: Malme-3M
NCI-H23 = test system: NCI-H23
NCI-H460 = test system: NCI-H460
NCI-H522 = test system: NCI-H522
OVCAR-3 = test system: OVCAR-3
OVCAR-4 = test system: OVCAR-4
OVCAR-5 = test system: OVCAR-5
OVCAR-8 = test system: OVCAR-8
RPMI-8226 = test system: RPMI-8226
RXF 393 = test system: RXF 393
RXF 631 = test system: RXF 631
SF-268 = test system: SF-268
SF-295 = test system: SF-295
SF-539 = test system: SF-539
SK-MEL-28 = test system: SK-MEL-28
SK-MEL-2 = test system: SK-MEL-2
SK-MEL-5 = test system: SK-MEL-5
SK-OV-3 = test system: SK-OV-3
SN12C = test system: SN12C
SNB-19 = test system: SNB-19
SNB-75 = test system: SNB-75
SW-620 = test system: SW-620
TK-10 = test system: TK-10
U-251 = test system: U-251
UACC-257 = test system: UACC-257
UACC-62 = test system: UACC-62
UO-31 = test system: UO-31
XF498 = test system: XF498
DMS-114 = test system: DMS-114
HCT-116 = test system: HCT-116
HOP-62 = test system: HOP-62
NCI-H226 = test system: NCI-H226
SNB-78 = test system: SNB-78
SR = test system: SR

O=C(O)CNS(=O)(=O)c1ccc(NC(=O)c2ccc(F)cc2)cc1
GI50 (786-0): > 100 µM (inactive)
GI50 (A498): > 100 µM (inactive)
GI50 (A549): > 100 µM (inactive)
GI50 (ACHN): > 100 µM (inactive)
GI50 (CAKI-1): > 100 µM (inactive)
GI50 (CCRF-CEM): > 100 µM (inactive)
GI50 (COLO 205): > 100 µM (inactive)
GI50 (DLD-1): > 100 µM (inactive)
GI50 (DMS-273): > 100 µM (inactive)
GI50 (EKVX): > 100 µM (inactive)
GI50 (HCC 2998): > 100 µM (inactive)
GI50 (HCT-15): > 100 µM
GI50 (HL-60): > 100 µM (inactive)
GI50 (HOP-18): > 100 µM (inactive)
GI50 (HOP-92): > 100 µM (inactive)
GI50 (HT-29): > 100 µM (inactive)
GI50 (IGROV-1): > 100 µM (inactive)
GI50 (K562): > 100 µM (inactive)
GI50 (KM-20L2): > 100 µM (inactive)
GI50 (KM12): > 100 µM (inactive)
GI50 (LOX IMVI): > 100 µM (inactive)
GI50 (LXFL 529): > 100 µM (inactive)
GI50 (M14): > 100 µM (inactive)
GI50 (M19-MEL): > 100 µM (inactive)
GI50 (MOLT-4): > 100 µM (inactive)
GI50 (Malme-3M): > 100 µM (inactive)
GI50 (NCI-H23): > 100 µM (inactive)
GI50 (NCI-H460): > 100 µM (inactive)
GI50 (NCI-H522): > 10 µM (inactive)
GI50 (OVCAR-3): > 100 µM (inactive)
GI50 (OVCAR-4): > 100 µM (inactive)
GI50 (OVCAR-5): > 100 µM (inactive)
GI50 (OVCAR-8): > 100 µM (inactive)
GI50 (RPMI-8226): > 100 µM (inactive)
GI50 (RXF 393): 83 µM (inactive)
GI50 (RXF 631): > 100 µM (inactive)
GI50 (SF-268): > 100 µM (inactive)
GI50 (SF-295): > 100 µM (inactive)
GI50 (SF-539): > 100 µM (inactive)
GI50 (SK-MEL-28): > 100 µM (inactive)
GI50 (SK-MEL-2): > 100 µM (inactive)
GI50 (SK-MEL-5): > 100 µM (inactive)
GI50 (SK-OV-3): > 100 µM (inactive)
GI50 (SN12C): > 100 µM (inactive)
GI50 (SNB-19): > 100 µM (inactive)
GI50 (SNB-75): > 100 µM (inactive)
GI50 (SW-620): > 100 µM (inactive)
GI50 (TK-10): > 100 µM (inactive)
GI50 (U-251): > 100 µM (inactive)
GI50 (UACC-257): > 100 µM (inactive)
GI50 (UACC-62): > 100 µM (inactive)
GI50 (UO-31): > 100 µM (inactive)
GI50 (XF498): > 100 µM (inactive)

COc1cc([C@@H]2c3cc4c(cc3[C@@H](OC(=O)c3ccccc3)C3COC(=O)[C@@H]32)OCO4)cc(OC)c1O (stereo partly specified)
GI50 (786-0): 0.0254 µM (active)
GI50 (A549): 0.0132 µM (active)
GI50 (ACHN): < 0.01 µM (active)
GI50 (CAKI-1): < 0.01 µM (active)
GI50 (CCRF-CEM): 0.0304 µM (active)
GI50 (COLO 205): 0.148 µM (active)
GI50 (DMS-114): < 0.01 µM (active)
GI50 (DMS-273): < 0.01 µM (active)
GI50 (HCC 2998): 0.0345 µM (active)
GI50 (HCT-116): < 0.01 µM (active)
GI50 (HL-60): < 0.01 µM (active)
GI50 (HOP-18): > 100 µM (inactive)
GI50 (HOP-62): 0.0208 µM (active)
GI50 (HOP-92): < 0.01 µM (active)
GI50 (HT-29): < 0.01 µM (active)
GI50 (IGROV-1): 0.0123 µM (active)
GI50 (K562): < 0.01 µM (active)
GI50 (KM-20L2): 0.0128 µM (active)
GI50 (KM12): < 0.01 µM (active)
GI50 (LOX IMVI): < 0.01 µM (active)
GI50 (LXFL 529): < 0.01 µM (active)
GI50 (M19-MEL): < 0.01 µM (active)
GI50 (MOLT-4): 0.0413 µM (active)
GI50 (Malme-3M): < 0.01 µM (active)
GI50 (NCI-H226): < 0.01 µM (active)
GI50 (NCI-H23): 0.0148 µM (active)
GI50 (NCI-H460): 0.0129 µM (active)
GI50 (NCI-H522): < 0.01 µM (active)
GI50 (OVCAR-4): 25.9 µM (inactive)
GI50 (OVCAR-5): 68.9 µM (inactive)
GI50 (OVCAR-8): < 0.01 µM (active)
GI50 (RPMI-8226): 0.012 µM (active)
GI50 (RXF 393): 0.0101 µM (active)
GI50 (RXF 631): < 0.01 µM (active)
GI50 (SF-268): 0.0289 µM (active)
GI50 (SF-295): < 0.01 µM (active)
GI50 (SF-539): < 0.01 µM (active)
GI50 (SK-MEL-28): < 0.01 µM (active)
GI50 (SK-MEL-2): 0.0104 µM (active)
GI50 (SK-MEL-5): < 0.01 µM (active)
GI50 (SK-OV-3): < 0.01 µM (active)
GI50 (SN12C): 0.0286 µM (active)
GI50 (SNB-75): < 0.01 µM (active)
GI50 (SW-620): < 0.01 µM (active)
GI50 (TK-10): 38.9 µM (inactive)
GI50 (U-251): 0.0143 µM (active)
GI50 (UACC-62): < 0.01 µM (active)
GI50 (UO-31): 0.132 µM (active)

O=C1C(=O)N(c2ccc(Cl)cc2)C(=O)/C(=N/c2cccc3c(=O)[nH][nH]c(=O)c23)C1c1nc2ccccc2o1 (stereo unspecified)
GI50 (786-0): > 100 µM (inactive)
GI50 (A498): > 100 µM (inactive)
GI50 (A549): > 100 µM (inactive)
GI50 (ACHN): > 100 µM (inactive)
GI50 (CAKI-1): > 100 µM (inactive)
GI50 (CCRF-CEM): > 100 µM (inactive)
GI50 (COLO 205): > 100 µM (inactive)
GI50 (DLD-1): > 100 µM (inactive)
GI50 (DMS-273): > 100 µM (inactive)
GI50 (EKVX): > 100 µM (inactive)
GI50 (HCC 2998): > 100 µM (inactive)
GI50 (HCT-116): > 100 µM (inactive)
GI50 (HCT-15): > 100 µM
GI50 (HL-60): > 100 µM (inactive)
GI50 (HOP-18): > 100 µM (inactive)
GI50 (HOP-62): > 100 µM (inactive)
GI50 (HOP-92): 84.9 µM (inactive)
GI50 (HT-29): > 100 µM (inactive)
GI50 (IGROV-1): > 100 µM (inactive)
GI50 (K562): > 100 µM (inactive)
GI50 (KM-20L2): > 100 µM (inactive)
GI50 (KM12): > 100 µM (inactive)
GI50 (LOX IMVI): > 100 µM (inactive)
GI50 (LXFL 529): > 100 µM (inactive)
GI50 (M14): > 100 µM (inactive)
GI50 (M19-MEL): > 100 µM (inactive)
GI50 (MOLT-4): > 100 µM (inactive)
GI50 (Malme-3M): > 100 µM (inactive)
GI50 (NCI-H226): > 100 µM (inactive)
GI50 (NCI-H23): > 100 µM (inactive)
GI50 (NCI-H460): > 100 µM (inactive)
GI50 (OVCAR-3): > 100 µM (inactive)
GI50 (OVCAR-4): > 100 µM (inactive)
GI50 (OVCAR-5): > 100 µM (inactive)
GI50 (OVCAR-8): > 100 µM (inactive)
GI50 (RPMI-8226): > 100 µM (inactive)
GI50 (RXF 631): > 100 µM (inactive)
GI50 (SF-268): > 100 µM (inactive)
GI50 (SF-295): > 100 µM (inactive)
GI50 (SF-539): > 100 µM (inactive)
GI50 (SK-MEL-28): > 100 µM (inactive)
GI50 (SK-MEL-2): > 100 µM (inactive)
GI50 (SK-MEL-5): > 100 µM (inactive)
GI50 (SK-OV-3): > 100 µM (inactive)
GI50 (SN12C): > 100 µM (inactive)
GI50 (SNB-19): 84.9 µM (inactive)
GI50 (SNB-75): > 100 µM (inactive)
GI50 (SNB-78): > 100 µM (inactive)
GI50 (SR): > 100 µM (inactive)
GI50 (SW-620): > 100 µM (inactive)
GI50 (TK-10): > 100 µM (inactive)
GI50 (U-251): > 100 µM (inactive)
GI50 (UACC-257): > 100 µM (inactive)
GI50 (UACC-62): > 100 µM (inactive)
GI50 (UO-31): > 100 µM (inactive)
